We go through 14 compounds from patent US7307077B2, “Heterocyclic compound and antitumor agent containing the same as effective ingredient” (Zenyaku Kogyo Kabushiki Kaisha, priority 2001, dated 2007).

As a reminder, the melting point is the temperature, or range, at which the solid turns liquid.

Data set [1] has as its system Human colon cancer WiDr. Put plainly: Test 2: human colon cancer WiDr subcutaneous tumor in nude mice. The note with it: intraperitoneally 200 mg/kg, once a day, six times a week, for two weeks. In kind it is in vivo, mutant BALA/c nude mice. The procedure: Human colon cancer WiDr was grown as subcutaneous tumor in mutant BALA/c nude mice. 2-mm-cube tumor fragments were transplanted subcutaneously into left flank of the nude mice. When the tumor reached logarithmic growth phase, mice were divided randomly into test groups consisting five mice per group. The samples prepared by dissolving test compounds in physiological saline solution or suspending them in 1% hydroxypropyl cellulose (HPC), using an agate mortar, were intraperitoneally administered at a rate of 200 mg/kg, once a day and six times a week in total, for two weeks. Major and minor axes of the tumor mass were measured on a daily basis to calculate tumor volume. The tumor volume at each measured day was divided by that at the start day of the sample administration to calculate relative tumor growth rate; and the relative tumor growth rate of the treated groups (T) and that of the control group (C) were used to calculate T/C (%).

For data set [2], the system named is MCF-7 cells. In words: Test 1: growth inhibition of MCF-7 human breast cancer cells. The note with it: Homo sapiens, MCF7, 72 hours culture with sample, read-out: GI50 (50% growth inhibition concentration). In kind it is cell-based. The protocol:
Used in the test were MCF-7 cells which were established from human breast cancer and were cultured routinely under the conditions of 37° C. and 5% CO2, in MEM medium supplemented with 10% fetal calf serum, 25 mM of HEPES and 0.1 mg/ml of kanamycin. The MCF-7 cells in a logarithmic growth phase were treated with trypsin/EDTA to prepare single cell suspension adjusted to 4.0×10^4 cells/ml in MEM medium (supplemented with 10% fetal calf serum, 25 mM of HEPES and 0.1 mg/ml of kanamycin). Test compounds were dissolved in DMSO and diluted with RPMI 1640 medium (supplemented with 10% fetal calf serum, 25 mM of HEPES and 0.1 mg/ml of kanamycin) to a concentration of 2.0×10^−4-2.0×10^−9 M.
The cell suspension was filled in a 96-wells microplate at a rate of 0.1 ml per well and was cultured for 24 hours so as to make the cells adhered to the microplate. Then, it was added with 0.1 ml of the sample solution and cultured at 37° C. for 72 hours in 5% CO2.
50% Growth inhibition concentrations (GI50 μM) were calculated from growth inhibitions at various sample concentrations.

Structures are written as SMILES.

Take `C[C@@H]1OCCN(c2nc(N3CCOCC3)nc(-n3c(C(F)F)nc4ccc(N)cc43)n2)[C@@H]1C` (relative stereo) [compound 33, 2-(6-amino-2-difluoromethylbenzimidazol-1-yl)-4-(2,3-cis-dimethylmorpholino)-6-morpholino-1,3,5-triazine]: the melting point was 220 to 222 °C (dec.). Further, the “judgment (T/C (%) of relative tumor growth rate, last day)” value in data set [1] is “+ (Cases where T/C (%) of the last day was less than 50% and U-assay of Mann-Whitney revealed significant difference with one-sided risk rate of 1% were judged to be effective (+))”. In data set [2], the GI50 amounted to 80 nM.

In turn, `C[C@@H]1OCCN(c2cc(N3CCOCC3)nc(-n3c(N)nc4ccccc43)n2)[C@H]1C.Cl` (relative stereo) [compound 31, 2-(2-aminobenzimidazol-1-yl)-4-(trans-2,3-dimethylmorpholino)-6-morpholinopyrimidine hydrochloride] returned a melting point of 141 to 145 °C. The “judgment (T/C (%) of relative tumor growth rate, last day)” value in data set [1] was “+ (Cases where T/C (%) of the last day was less than 50% and U-assay of Mann-Whitney revealed significant difference with one-sided risk rate of 1% were judged to be effective (+))”. For the same compound, the GI50 in data set [2] amounted to 240 nM.

With `C[C@@H]1OCCN(c2nc(N3CCOCC3)nc(-n3c(C(F)F)nc4ccccc43)n2)[C@H]1C` (relative stereo) [compound 14, 2-(2-difluoromethylbenzimidazol-1-yl)-4-(trans-2,3-dimethylmorpholino)-6-morpholino-1,3,5-triazine], the melting point is 135 to 138 °C. The “judgment (T/C (%) of relative tumor growth rate, last day)” value in data set [1] was “+ (Cases where T/C (%) of the last day was less than 50% and U-assay of Mann-Whitney revealed significant difference with one-sided risk rate of 1% were judged to be effective (+))”. For the same compound, the GI50 in data set [2] came to 160 nM.

Consider `CC1(C)CN(c2nc(N3CCOCC3)nc(-n3c(C(F)F)nc4ccc(N)cc43)n2)CCO1` [compound 32, 2-(6-amino-2-difluoromethylbenzimidazol-1-yl)-4-(2,2-dimethylmorpholino)-6-morpholino-1,3,5-triazine], for which the melting point was 226 to 227 °C (dec.). The “judgment (T/C (%) of relative tumor growth rate, last day)” value in data set [1] was “+ (Cases where T/C (%) of the last day was less than 50% and U-assay of Mann-Whitney revealed significant difference with one-sided risk rate of 1% were judged to be effective (+))”. Further, in data set [2], the GI50 was 180 nM.

`COC(=O)Nc1nc2ccccc2n1-c1nc(N2CCOCC2)nc(N2CCOCC2)n1` [compound 29, 2-(2-methoxycarbonylaminobenzimidazol-1-yl)-4,6-dimorpholino-1,3,5-triazine] registered a melting point of 206 to 209 °C. The GI50 in data set [2] came out at 250 nM.

The compound `C[C@@H]1OCCN(c2cc(N3CCCCC3)nc(-n3c(CO)nc4ccccc43)n2)[C@@H]1C` (relative stereo) [compound 11, 4-(cis-2,3-dimethylmorpholino)-2-(2-hydroxymethylbenzimidazol-1-yl)-6-piperidinopyrimidine] displayed a melting point of 141 to 143 °C. For the same compound, the GI50 in data set [2] was found to be 200 nM.

In the case of `FC(F)c1nc2ccccc2n1-c1nc(N2CCOCC2)nc(N2CCOCC2)n1` [compound 19, 2-(2-difluoromethylbenzimidazol-1-yl)-4,6-dimorpholino-1,3,5-triazine], the “judgment (T/C (%) of relative tumor growth rate, last day)” value in data set [1] was “+ (Cases where T/C (%) of the last day was less than 50% and U-assay of Mann-Whitney revealed significant difference with one-sided risk rate of 1% were judged to be effective (+))”. Further, the GI50 in data set [2] is 90 nM.

`C[C@@H]1OCCN(c2cc(N3CCOCC3)nc(-n3c(CO)nc4ccccc43)n2)[C@@H]1C` (relative stereo) [compound 10, 4-(cis-2,3-dimethylmorpholino)-2-(2-hydroxymethylbenzimidazol-1-yl)-6-morpholinopyrimidine] came in with a melting point of 125 to 128 °C. Besides, the GI50 in data set [2] came out at 130 nM.

`CC(=O)Nc1nc2ccccc2n1-c1nc(N2CCOCC2)nc(N2CCOCC2)n1` [compound 22, 2-(2-acetylaminobenzimidazol-1-yl)-4,6-dimorpholino-1,3,5-triazine] returned a melting point of 243 to 245 °C. For the same compound, the “judgment (T/C (%) of relative tumor growth rate, last day)” value in data set [1] was “+ (Cases where T/C (%) of the last day was less than 50% and U-assay of Mann-Whitney revealed significant difference with one-sided risk rate of 1% were judged to be effective (+))”. The GI50 in data set [2] is 230 nM.

As for `CC1CN(c2nc(N3CCOCC3)nc(-n3c(C(F)F)nc4ccccc43)n2)CCO1` (stereo not drawn) [compound 17, 2-(2-difluoromethylbenzimidazol-1-yl)-4-(2-methylmorpholino)-6-morpholino-1,3,5-triazine], the melting point is 188 to 191 °C. The GI50 in data set [2] came to 120 nM.

Regarding `C[C@@H]1OCCN(c2cc(N3CCCC3CO)nc(-n3c(CO)nc4ccccc43)n2)[C@@H]1C` (relative stereo) [compound 12, 4-(cis-2,3-dimethylmorpholino)-2-(2-hydroxymethylbenzimidazol-1-yl)-6-(2-hydroxymethylpyrrolidin-1-yl)pyrimidine], the melting point lay in the range of 104 to 108 °C. Also, the GI50 in data set [2] came out at 390 nM.

Regarding `CC(=O)Nc1nc2ccccc2n1-c1nc(N2CCOCC2)cc(N2CCO[C@@H](C)[C@@H]2C)n1` (relative stereo) [compound 23, 2-(2-acetylaminobenzimidazol-1-yl)-4-(trans-2,3-dimethylmorpholino)-6-morpholinopyrimidine], the melting point was 150 to 153 °C. In data set [2], the GI50 came out at 190 nM.

`C[C@@H]1OCCN(c2cc(N3CCOCC3)nc(-n3c(C(F)F)nc4ccc(N)cc43)n2)[C@@H]1C` (relative stereo) [compound 36, 2-(6-amino-2-difluoromethylbenzimidazol-1-yl)-4-(2,3-cis-dimethylmorpholino)-6-morpholinopyrimidine]: the melting point is 155 to 158 °C (dec.). For the same compound, the GI50 in data set [2] amounted to 290 nM.

As for `CC1(C)OCCN1c1nc(N2CCOCC2)nc(-n2c(C(F)F)nc3cc(O)ccc32)n1` [compound 39, 2-(2-difluoromethyl-5-hydroxybenzimidazol-1-yl)-4-(2,2-dimethyloxazolidin-3-yl)-6-morpholino-1,3,5-triazine], the melting point was 239 to 243 °C (dec.). In data set [2], the GI50 was determined as 60 nM.
